Here are results for six compounds from patent publication US4450155A, “Analgesic dipeptide amides and method of use and compositions thereof” (Sterling Drug Inc., priority 1982, dated 1984).

Test [1] has as its system guinea pig ileum longitudinal muscle with adhering myenteric plexus. Put plainly: Guinea pig ileum test (electrically stimulated longitudinal muscle, inhibition of twitch height). In kind it is cell-based. The conditions noted are these: ratio of IC50 of reference compound Met^5-enkephalin to IC50 of test compound in the same preparation, averaged (N=4); reference given as 100. As to the method: Adult male guinea pigs (Charles River, Hartley strain) weighing 300-500 g. are decapitated, and the terminal ileum is exposed by reflecting the overlying cecum, severed at the ileocecal juncture, and removed while cutting the mesenteric attachments to avoid excessive traction on the tissue. The ileum (about 30 cm. in length) is transferred to a beaker containing warm modified Krebs-Henseleit solution (118 mM sodium chloride, 4.75 mM potassium chloride, 2.54 mM calcium chloride, 1.19 mM potassium dihydrogen phosphate, 1.2 mM magnesium sulfate, 25 mM sodium bicarbonate, 11 mM glucose, 20 μM choline chloride and 0.125 μM pyrilamine maleate). The terminal (aboral) portion (about 10 cm. in length) is discarded, and segments (3-4 cm. in length) are cut from the remainder and gently slid onto a glass rod (5-6 mm. in diameter) and arranged so that the mesenteric attachment is in a straight line. A cotton swab moistened in the solution is then carefully used to separate the longitudinal muscle from the underlying circular muscle. The longitudinal muscle and adhering myenteric plexus is then gently removed from the remaining tissue with forceps.
Strips of this prepared longitudinal muscle are mounted in a double-jacketed organ bath (5 ml.) under tension (1.0 g.), connected to isometric transducers (Grass FT .03), bathed in the modified Krebs-Henseleit solution described above, aerated with oxygen-carbon dioxide (95:5) and maintained at 37° C.
Stimulators (Grass S-44) are set to deliver repetitive monophasic square wave field stimulation (supramaximal voltage, 0.10 Hz., 0.25 msec. duration) through platinum ring electrodes at the top and bottom of the bath. Regular contractions of the muscle, which result from electrically-induced liberation of acetylcholine from postganglionic parasympathetic nerves, are recorded on a polygraph (Grass model 5). Following tissue equilibration (45-60 min.) and repeated washing (every 10 min.) an aqueous solution of a reference or test compound is added to the bath in a microliter volume (1.25-250 μl) and reductions in muscle twitch height are recorded. More compound can be added […] first washing the preparation.
From the results a half-maximal inhibitory concentration (IC50) value for the compound is computed by regression analysis of a linear plot of logarithm of concentration against percent of inhibition of twitch height (probits). The ratio of the IC50 value of a reference compound to that of a test compound tested in the same preparation is the molar potency ratio. Usually four preparations are tested simultaneously by the same person (N=4), and the resulting four molar potency ratios are averaged. […]

A further test deals with opiate receptor. The conditions noted are these: rat brain membranes, relative to morphine; cited from earlier work.
In the next test the test system is rat. The following applies: relative to morphine, cited from earlier work.
Another test deals with mouse vas deferens. The following applies: mouse vas deferens test; cited from earlier work.
A further test deals with guinea pig ileum. The conditions noted are these: guinea pig ileum test; cited from earlier work.

Read-outs that look alike come from different tables or passages of the source. Where a SMILES comes first, the peptide text is derived from it. The star is where a group is joined. NHPhenethyl = c1ccc(CCN*)cc1 A value given as a limit tells only on which side of the number the result lay.

For Met^5 -enkephalin [Met^5 --enkephalin], in test [1], the “Average Molar Potency Ratio” value turned out to be 100.
Regarding `N[C@@H](Cc1ccc(O)cc1)C(=O)N1CCC[C@H]1C(=O)NCCc1ccccc1` [Example 1, L-tyrosyl-N-(2-phenylethyl)-L-prolinamide] (H-Tyr-Pro-NHPhenethyl), the “Average Molar Potency Ratio” value in test [1] was 117.
As to `CN(CCCc1ccccc1)C(=O)[C@@H]1CCCN1C(=O)[C@@H](N)Cc1ccc(O)cc1` [Example 3, L-tyrosyl-N-methyl-N-(3-phenylpropyl)-L-prolinamide], in test [1], the “Average Molar Potency Ratio” value amounted to 9.
With `N[C@@H](Cc1ccc(O)cc1)C(=O)N1CCC[C@H]1C(=O)NCCCc1ccccc1` [Example 2, L-tyrosyl-N-(3-phenylpropyl)-L-prolinamide], the “Average Molar Potency Ratio” value in test [1] is given as 6.
As to `C[C@@H](NC(=O)[C@@H](N)Cc1ccc(O)cc1)C(N)=O` [H-Tyr-D-Ala-NH2], the “times less affinity than morphine, opiate receptor binding” value with opiate receptor was 830 times. The entries for the “times less potent than morphine, tail flick test” value in the test with rat (intravenously) and in the test on rat (intraventricularly) were “greater than 10 times” and 200 times, respectively.
For `C[C@@H](NC(=O)[C@@H](N)Cc1ccc(O)cc1)C(=O)NCCNCCc1ccccc1` [HTyrD-AlaNH(CH2)2 NH(CH2)2 Phenyl], the “potency relative to Met-enkephalin” value in the test on mouse vas deferens and in the test with guinea pig ileum was less than 1% each time.
